Data taken from PubChem BioAssay (NCI).
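Assay format: 96-well plates, 48-hour exposure. GI50 = concentration required for 50% inhibition of growth. TGI denotes the concentration required for complete inhibition of growth.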

Key:
Test in all cases: NCI-60 cell line screen, 48 h
SK-MEL-2 melanoma = tested on: SK-MEL-2 melanoma
T-47D breast = tested on: T-47D breast
HCT-116 colon = tested on: HCT-116 colon
COLO 205 colon = tested on: COLO 205 colon
ACHN renal = tested on: ACHN renal
PC-3 prostate = tested on: PC-3 prostate
OVCAR-4 ovarian = tested on: OVCAR-4 ovarian
MALME-3M melanoma = tested on: MALME-3M melanoma
CCRF-CEM leukemia = tested on: CCRF-CEM leukemia
KM12 colon = tested on: KM12 colon
K-562 leukemia = tested on: K-562 leukemia
HCC-2998 colon = tested on: HCC-2998 colon
SR leukemia = tested on: SR leukemia
A549 NSCLC = tested on: A549 NSCLC
MOLT-4 leukemia = tested on: MOLT-4 leukemia
NCI-H226 lung = tested on: NCI-H226 lung
SN12C renal = tested on: SN12C renal
HL-60(TB) leukemia = tested on: HL-60(TB) leukemia
SF-268 CNS = tested on: SF-268 CNS
OVCAR-5 ovarian = tested on: OVCAR-5 ovarian
TK-10 renal = tested on: TK-10 renal
SK-MEL-28 melanoma = tested on: SK-MEL-28 melanoma
HOP-62 NSCLC = tested on: HOP-62 NSCLC
OVCAR-8 ovarian = tested on: OVCAR-8 ovarian
MCF7 breast = tested on: MCF7 breast
SK-MEL-5 melanoma = tested on: SK-MEL-5 melanoma
RXF 393 renal = tested on: RXF 393 renal
NCI-H460 lung = tested on: NCI-H460 lung
MDA-MB-231 breast = tested on: MDA-MB-231 breast
SW-620 colon = tested on: SW-620 colon
CAKI-1 renal = tested on: CAKI-1 renal
NCI-H23 lung = tested on: NCI-H23 lung
IGROV1 ovarian = tested on: IGROV1 ovarian
HCT-15 colon = tested on: HCT-15 colon
786-0 renal = tested on: 786-0 renal
DU-145 prostate = tested on: DU-145 prostate
HT29 colon = tested on: HT29 colon
NCI-H522 lung = tested on: NCI-H522 lung
UACC-62 melanoma = tested on: UACC-62 melanoma
OVCAR-3 ovarian = tested on: OVCAR-3 ovarian
A498 renal = tested on: A498 renal
RPMI-8226 leukemia = tested on: RPMI-8226 leukemia
UACC-257 melanoma = tested on: UACC-257 melanoma
HOP-92 NSCLC = tested on: HOP-92 NSCLC
M14 melanoma = tested on: M14 melanoma
BT-549 breast = tested on: BT-549 breast
U251 CNS = tested on: U251 CNS
EKVX NSCLC = tested on: EKVX NSCLC
UO-31 renal = tested on: UO-31 renal
SK-OV-3 ovarian = tested on: SK-OV-3 ovarian
LOX IMVI melanoma = tested on: LOX IMVI melanoma
NCI/ADR-RES ovarian = tested on: NCI/ADR-RES ovarian
SF-539 CNS = tested on: SF-539 CNS
SNB-19 CNS = tested on: SNB-19 CNS
SNB-75 CNS = tested on: SNB-75 CNS
MDA-MB-435 = tested on: MDA-MB-435
HS 578T breast = tested on: HS 578T breast
SF-295 CNS = tested on: SF-295 CNS

CC(=O)Nc1sc2c(c1-c1nc3ccccc3s1)CNC2
GI50 (SK-MEL-2 melanoma): 2.67 µM
TGI (SK-MEL-2 melanoma): 9.71 µM
GI50 (T-47D breast): 2.36 µM
TGI (T-47D breast): 22.3 µM
GI50 (HCT-116 colon): 1.99 µM
TGI (HCT-116 colon): 12.5 µM
GI50 (COLO 205 colon): 1.88 µM
TGI (COLO 205 colon): 9.73 µM
GI50 (ACHN renal): 1.28 µM
TGI (ACHN renal): 7.56 µM
GI50 (PC-3 prostate): 3.37 µM
TGI (PC-3 prostate): 18.4 µM
GI50 (OVCAR-4 ovarian): 3.08 µM
TGI (OVCAR-4 ovarian): 24.8 µM
GI50 (MALME-3M melanoma): 2.21 µM
TGI (MALME-3M melanoma): 8.75 µM
GI50 (CCRF-CEM leukemia): 3.74 µM
TGI (CCRF-CEM leukemia): 22.2 µM
GI50 (KM12 colon): 3.38 µM
TGI (KM12 colon): > 50 µM
GI50 (K-562 leukemia): 2.23 µM
TGI (K-562 leukemia): 11.1 µM
GI50 (HCC-2998 colon): 2.58 µM
TGI (HCC-2998 colon): 9.92 µM
GI50 (SR leukemia): 1.68 µM
TGI (SR leukemia): 12.6 µM
GI50 (A549 NSCLC): 2.26 µM
TGI (A549 NSCLC): 25 µM
GI50 (MOLT-4 leukemia): 2.03 µM
TGI (MOLT-4 leukemia): 9.2 µM
GI50 (NCI-H226 lung): 3.27 µM
TGI (NCI-H226 lung): 16.7 µM
GI50 (SN12C renal): 2.5 µM
TGI (SN12C renal): 15.5 µM
GI50 (HL-60(TB) leukemia): 2.84 µM
TGI (HL-60(TB) leukemia): 11.6 µM
GI50 (SF-268 CNS): 2.94 µM
TGI (SF-268 CNS): 15 µM
GI50 (OVCAR-5 ovarian): 3.05 µM
TGI (OVCAR-5 ovarian): 18 µM
GI50 (TK-10 renal): 4.74 µM
TGI (TK-10 renal): 24.4 µM
GI50 (SK-MEL-28 melanoma): 2.94 µM
TGI (SK-MEL-28 melanoma): 9.93 µM
GI50 (HOP-62 NSCLC): 2.38 µM
TGI (HOP-62 NSCLC): 15.8 µM
GI50 (OVCAR-8 ovarian): 2.45 µM
TGI (OVCAR-8 ovarian): > 50 µM
GI50 (MCF7 breast): 0.865 µM
TGI (MCF7 breast): 7.88 µM
GI50 (SK-MEL-5 melanoma): 5.23 µM
TGI (SK-MEL-5 melanoma): 11.2 µM
GI50 (RXF 393 renal): 2.25 µM
TGI (RXF 393 renal): 7.96 µM
GI50 (NCI-H460 lung): 1.94 µM
TGI (NCI-H460 lung): 10.2 µM
GI50 (MDA-MB-231 breast): 3.09 µM
TGI (MDA-MB-231 breast): 16.2 µM
GI50 (SW-620 colon): 2.33 µM
TGI (SW-620 colon): 48.3 µM
GI50 (CAKI-1 renal): 2.05 µM
TGI (CAKI-1 renal): > 50 µM
GI50 (NCI-H23 lung): 2.44 µM
TGI (NCI-H23 lung): 11.8 µM
GI50 (IGROV1 ovarian): 2.07 µM
TGI (IGROV1 ovarian): 11.9 µM
GI50 (HCT-15 colon): 1.56 µM
TGI (HCT-15 colon): 8.89 µM
GI50 (786-0 renal): 2.61 µM
TGI (786-0 renal): 9.6 µM
GI50 (DU-145 prostate): 2.93 µM
TGI (DU-145 prostate): > 50 µM
GI50 (HT29 colon): 3.76 µM
TGI (HT29 colon): 19.4 µM
GI50 (NCI-H522 lung): 2.62 µM
TGI (NCI-H522 lung): 10.8 µM
GI50 (UACC-62 melanoma): 2.76 µM
TGI (UACC-62 melanoma): 11.7 µM
GI50 (OVCAR-3 ovarian): 3.85 µM
TGI (OVCAR-3 ovarian): 24.4 µM
GI50 (A498 renal): 7.4 µM
TGI (A498 renal): 14.9 µM
GI50 (RPMI-8226 leukemia): 3.57 µM
TGI (RPMI-8226 leukemia): 19.3 µM
GI50 (UACC-257 melanoma): 5.41 µM
TGI (UACC-257 melanoma): 14.8 µM
GI50 (HOP-92 NSCLC): 4.21 µM
TGI (HOP-92 NSCLC): 19.2 µM
GI50 (M14 melanoma): 2.47 µM
TGI (M14 melanoma): 9.71 µM
GI50 (BT-549 breast): 6.83 µM
TGI (BT-549 breast): 14.7 µM
GI50 (U251 CNS): 4.06 µM
TGI (U251 CNS): 30.3 µM
GI50 (EKVX NSCLC): 2.59 µM
TGI (EKVX NSCLC): 21.9 µM
GI50 (UO-31 renal): 0.648 µM
TGI (UO-31 renal): 11.4 µM
GI50 (SK-OV-3 ovarian): 4.05 µM
TGI (SK-OV-3 ovarian): 39.2 µM
GI50 (LOX IMVI melanoma): 1.67 µM
TGI (LOX IMVI melanoma): 6.74 µM
GI50 (NCI/ADR-RES ovarian): 1.97 µM
TGI (NCI/ADR-RES ovarian): 15.7 µM
GI50 (SF-539 CNS): 2.17 µM
TGI (SF-539 CNS): 8.52 µM
GI50 (SNB-19 CNS): 3.49 µM
TGI (SNB-19 CNS): 28.9 µM
GI50 (SNB-75 CNS): 1.81 µM
TGI (SNB-75 CNS): 9.52 µM
GI50 (MDA-MB-435): 3.48 µM
TGI (MDA-MB-435): 12.5 µM
GI50 (HS 578T breast): 7.05 µM
TGI (HS 578T breast): 22.6 µM
GI50 (SF-295 CNS): 2.25 µM
TGI (SF-295 CNS): 9.93 µM
